According to patent US20070128217A1 (priority 2003, published 2007):

Columns and labels:
[1] = test system: antibodies in sera from SARS patients (sera 1a, 1b, 2, 6, 37, 62, London, SARS-yellow, SARS-green); assay type: binding, human; parameters: Binding of serum 6 to linear peptides of protein X1 of SARS-CoV Urbani / Binding of serum 37 to linear peptides of protein X1 of SARS-CoV Urbani / Binding of serum 6 to looped/cyclic peptide (PEPSCAN-ELISA) / Binding of serum 37 to looped/cyclic peptide (PEPSCAN-ELISA) / Binding of serum 37 to looped/cyclic peptides of protein X1 of SARS-CoV Urbani / Binding of serum 6 to linear peptides of protein X2 / Binding of serum 37 to linear peptides of protein X2 / Binding of serum 37 to looped/cyclic peptides of protein X2 of SARS-CoV Urbani / Binding of serum 6 to linear peptides of protein M of SARS-CoV Urbani / Binding of serum 37 to linear peptides of protein M of SARS-CoV Urbani / Binding of serum 6 to looped/cyclic peptides of protein M of SARS-CoV Urbani / Binding of serum 37 to looped/cyclic peptides of protein M of SARS-CoV Urbani / Binding of serum 6 to linear peptides of protein X3 of SARS-CoV Urbani / Binding of serum 37 to linear peptides of protein X3 of SARS-CoV Urbani / Binding of serum 37 to looped/cyclic peptides of protein X3 of SARS-CoV Urbani / Binding of serum 6 to linear peptides of protein X4 of SARS-CoV Urbani / Binding of serum 37 to linear peptides of protein X4 of SARS-CoV Urbani / Binding of serum 37 to looped/cyclic peptides of protein X4 of SARS-CoV Urbani / Binding of serum 6 to linear peptides of protein X5 of SARS-CoV Urbani / Binding of serum 37 to linear peptides of protein X5 of SARS-CoV Urbani / Binding of serum 37 to looped/cyclic peptides of protein X5 of SARS-CoV Urbani / Binding of serum 6 to linear peptides of protein N of SARS-CoV Urbani / Binding of serum 37 to linear peptides of protein N of SARS-CoV Urbani / Binding of serum 6 to linear peptide (PEPSCAN-ELISA) / Binding of serum 1a to looped/cyclic peptides of protein N of SARS-CoV Urbani / Binding of serum 1b to looped/cyclic peptides of protein N of SARS-CoV Urbani / Binding of serum 2 to looped/cyclic peptides of protein N of SARS-CoV Urbani / Binding of serum 6 to looped/cyclic peptides of protein N of SARS-CoV Urbani / Binding of serum 37 to looped/cyclic peptides of protein N of SARS-CoV Urbani / Binding of serum 62 to looped/cyclic peptides of protein N of SARS-CoV Urbani / Binding of serum London to looped/cyclic peptides of protein N of SARS-CoV Urbani / Binding of serum SARS-green to looped/cyclic peptides of protein N of SARS-CoV Urbani: unit not given here
[2] = test system: control sera (pooled serum of ten healthy LUMC hospital workers; commercial negative donor pooled serum from the Dutch bloodbank); assay type: binding, human; parameters: Binding of Control serum LUMC to linear peptides / Binding of Control serum Blood-bank to linear peptides / Binding of Control serum LUMC to looped peptides / Binding of Control Serum Blood-Bank to Looped peptides / Binding of Control serum LUMC to linear peptides of the protein M of SARS-CoV Urbani / Binding of Control serum Blood-bank to linear peptides of the protein M of SARS-CoV Urbani / Binding of Control serum LUMC to looped peptides of the protein M of SARS-CoV Urbani / Binding of Control Serum Blood-Bank to Looped peptides of the protein M of SARS-CoV Urbani: unit not given here
[3] = test system: rabbit serum obtained by immunizing a rabbit with the SARS-CoV strain Frankfurt 1; assay type: binding; parameters: Binding of a rabbit serum to linear peptides / Binding of a rabbit serum to looped peptides / Rabbit serum linear peptides / Rabbit serum looped peptides / Binding of a rabbit serum to linear peptides of protein N of SARS-CoV Urbani (Rabbit serum linear peptides) / Binding of a rabbit serum to looped/cyclic peptides of protein N of SARS-CoV Urbani (Rabbit serum looped peptides): unit not given here
[4] = test system: recombinant human anti-SARS-CoV antibody 03-018; assay type: binding; parameters: Binding of antibody 03-018 to linear peptides of the N protein of SARS-CoV Urbani / Binding of antibody 03-018 to looped/cyclic peptides of the N protein of SARS-CoV Urbani: unit not given here

Sequence | Binding of serum 1a to linear peptides of protein N of SARS-CoV Urbani [1] | Binding of serum 1a to looped/cyclic peptides of protein N of SARS-CoV Urbani [1] | Binding of serum 1b to linear peptides of protein N of SARS-CoV Urbani [1] | Binding of serum 1b to looped/cyclic peptides of protein N of SARS-CoV Urbani [1] | Binding of serum 2 to linear peptides of protein N of SARS-CoV Urbani [1] | Binding of serum 2 to looped/cyclic peptides of protein N of SARS-CoV Urbani [1] | Binding of serum 6 to linear peptides of protein N of SARS-CoV Urbani [1] | Binding of serum 6 to looped/cyclic peptides of protein N of SARS-CoV Urbani [1] | Binding of serum 37 to linear peptides of protein N of SARS-CoV Urbani [1] | Binding of serum 37 to looped/cyclic peptides of protein N of SARS-CoV Urbani [1] | Binding of serum 62 to linear peptides of protein N of SARS-CoV Urbani [1] | Binding of serum 62 to looped/cyclic peptides of protein N of SARS-CoV Urbani [1] | Binding of serum London to linear peptides of protein N of SARS-CoV Urbani [1] | Binding of serum London to looped/cyclic peptides of protein N of SARS-CoV Urbani [1] | Binding of serum SARS-green to linear peptides of protein N of SARS-CoV Urbani [1] | Binding of serum SARS-green to looped/cyclic peptides of protein N of SARS-CoV Urbani [1] | Binding of serum SARS-yellow to linear peptides of protein N of SARS-CoV Urbani [1] | Binding of serum SARS-yellow to looped/cyclic peptides of protein N of SARS-CoV Urbani [1] | Binding of a rabbit serum to linear peptides of protein N of SARS-CoV Urbani (Rabbit serum linear peptides) [3] | Binding of a rabbit serum to looped/cyclic peptides of protein N of SARS-CoV Urbani (Rabbit serum looped peptides) [3] | also measured
WYFYYLGTGPEASLP | 0.3 | 0.4 | 0.2 | 0.3 | 0.3 | 0.4 | 0.2 | 0.3 | 0.9 | 0.7 | 0.8 | 0.5 | 0.5 | 0.4 | 0.3 | 0.4 | 0.7 | 0.5 | 0.1 | 0.3 | Binding of Control Serum Blood-Bank to Looped peptides [2]: 0.6; Binding of Control serum Blood-bank to linear peptides [2]: 0.7; Binding of Control serum LUMC to linear peptides [2]: 0.6; Binding of Control serum LUMC to looped peptides [2]: 0.6; Binding of antibody 03-018 to linear peptides of the N protein of SARS-CoV Urbani [4]: 0.1; Binding of antibody 03-018 to looped/cyclic peptides of the N protein of SARS-CoV Urbani [4]: 0.2
YKTFPPTEPKKDKKK | 0.2 | 0.2 | 0.1 | 0.1 | 0.5 | 0.1 | 0.2 | 0.0 | 0.7 | 0.4 | 0.7 | 0.2 | 0.5 | 0.3 | 0.2 | 0.0 | 0.8 | 0.2 | 0.2 | 0.2 | Control Serum Blood-Bank Looped peptides [2]: 0.3; Control serum Blood-bank linear peptides [2]: 0.7; Control serum LUMC linear peptides [2]: 0.6; Control serum LUMC looped peptides [2]: 0.3; Binding of antibody 03-018 to linear peptides of the N protein of SARS-CoV Urbani [4]: 0.1; Binding of antibody 03-018 to looped/cyclic peptides of the N protein of SARS-CoV Urbani [4]: 0.2
YLGTGPEASLPYGAN | 0.2 | 0.4 | 0.1 | 0.3 | 0.2 | 0.4 | 0.2 | 0.2 | 0.7 | 0.8 | 0.6 | 0.7 | 0.5 | 0.5 | 0.3 | 0.6 | 0.6 | 0.6 | 0.1 | 0.6 | Binding of Control Serum Blood-Bank to Looped peptides [2]: 0.7; Binding of Control serum Blood-bank to linear peptides [2]: 0.6; Binding of Control serum LUMC to linear peptides [2]: 0.8; Binding of Control serum LUMC to looped peptides [2]: 0.7; Binding of antibody 03-018 to linear peptides of the N protein of SARS-CoV Urbani [4]: 0.1; Binding of antibody 03-018 to looped/cyclic peptides of the N protein of SARS-CoV Urbani [4]: 0.2
